{"source": "patent US5652334A", "about": "“Method for design of substances that enhance memory and improve the quality of life” (City of Hope, priority 1993, dated 1997)", "key": {"CD-1 male mice [1]": {"test_system": "CD-1 male mice", "experiment": "Footshock active avoidance training (FAAT) in T-maze, amnesia test in well-trained mice, post-training ICV injection", "type": "in vivo", "details": "for amnestic effect on retention of FAAT: 6.14 nmol of peptide per mouse (except dose-response curves), well-trained mice, retention tested one week later; for amnestic efficacy/potency compared with another peptide: dose-response curves / FIG. 19", "description": "(§1) Test Animals. After 1 week in the laboratory, CD-1 male mice obtained from Charles River Breeding Laboratories were caged individually 24-28 hours prior to training and remained singly housed until retention was tested one week later. Animal rooms were on a 12 hour light/dark cycle with lights going on at the hour of 0600. Median body weight was 35 g, with a range of 33-38 g. Mice were assigned randomly to groups of 15 in the experiments reported in FIGS. 1-18 and groups of 10 for the dose-response curves (FIGS. 19 and 20) and were trained and tested between the hours of 0700 and 1500.\n(§2) Peptides Tested. With the exception of Val Phe and Phe Val from Sigma, all peptides used in these studies were synthesized and analyzed to establish purity by standard methods at the Beckman Research Institute. Peptides were dissolved in: (1) saline; (2) 8% vol/vol dimethyl sulfoxide; (3) glacial acetic acid neutralized with […]; or (4) NaOH neutralized with HCl.\nWith exception of dose-response curves, the experiments reported below tested whether or not there was an amnestic effect at 6.14 nmol of peptide per mouse.\n(§3) Apparatus, Training and Testing Procedures. The T-maze used for footshock active avoidance training (FAAT) consisted of a black plastic alley (46 cm long) with a start box at one end and two goal boxes (17.5 cm long) at the other. The start box was separated from the alley by a plastic guillotine door that prevented movement down the alley until training began. The alley was 12.5 cm deep and 9.8 cm wide. An electrifiable stainless steel rod floor ran throughout the maze.\n(§4) Mice were not permitted to explore the maze before training. A block of training trials began when a mouse was placed in the start box. The guillotine door was raised and a muffled doorbell-type buzzer sounded simultaneously; footshock was 5 seconds later through a scrambled grid floor shocker (Colbourn Instruments, Model E13-08). The goal box first entered during the first set of trials was designated as \"incorrect\", and footshock was continued until the mouse entered the other goal box, which in all subsequent trials was designated \"correct\" for the particular mouse. At the end of each group of trials, the mouse was removed to its home cage.\nAs training proceeded, a mouse made one of two types of responses. A response latency longer than 5 seconds was classed as an escape from the footshock. A response latency less than or equal to 5 seconds was considered an avoidance, since the mouse avoided receiving a footshock. Two exclusion criteria were applied to reduce learning variability among mice, as follows. On the first training trials, mice with escape latencies greater than 20 seconds were discarded. Mice not having at least one errorless escape latency between 1.5 and 3.5 seconds on training trials 3 or 4 were excluded. […] Mice received five such training trials. One week after training and post-trial administration of vehicle alone or vehicle containing test substance, T-maze training was resumed until each mouse made five avoidance responses in six consecutive training trials (trials to criterion). The recall score was taken to be the percentage of tested mice remembering original training.\nIn these instances, training was performed under conditions that tend to maximize learning (sound intensity, 65 decibels; footshock current, 0.35 mA; intertrial interval, 45 seconds)."}, "CD-1 male mice [2]": {"test_system": "CD-1 male mice", "experiment": "FAAT in T-maze, memory-enhancement test in weakly trained mice (poor retention in vehicle controls), post-training ICV injection", "type": "in vivo", "details": "for Lowest Concentration For Significant Memory Enhancement: Table 1", "description": "as §1\nas §2, with “HCl. […] Analysis of variance showing insignificant differences among the latter, the value for the most frequently employed (No. 2 above) was used for comparison with groups receiving test peptides.” for “HCl.”\nas §3, §4\nAs training proceeded, a mouse made one of two types of responses. A response latency longer than 5 seconds was classed as an escape from the footshock. A response latency less than or equal to 5 seconds was considered an avoidance, since the mouse avoided receiving a footshock. Two exclusion criteria were applied to reduce learning variability among mice, as follows. On the first training trials, mice with escape latencies greater than 20 seconds were discarded. Mice not having at least one errorless escape latency between 1.5 and 3.5 seconds on training trials 3 or 4 were excluded. The total exclusions were fewer than 15%. Mice received five such training trials. One week after training and post-trial administration of vehicle alone or vehicle containing test substance, T-maze training was resumed until each mouse made five avoidance responses in six consecutive training trials (trials to criterion). The recall score was taken to be the percentage of tested mice remembering original training.\nWell-trained animals (recall score approximately 80%) were used to determine whether or not administered substances could cause amnesia. In these instances, training was performed under conditions that tend to maximize learning (sound intensity, 65 decibels; footshock current, 0.35 mA; intertrial interval, 45 seconds). In the cases in which it was desired to detect whether or not there was an enhancing effect on memory, training conditions were adjusted so that the initial recall score in vehicle controls was only approximately 20% (sound intensity, 55 decibels; footshock current, 0.30 mA; intertrial interval, 30 seconds). […]"}, "CD-1 male mice [3]": {"test_system": "CD-1 male mice", "details": "cited from earlier work; for amnestic effect on retention of FAAT (earlier publications): post-training ICV, references 1 and 12"}, "[4]": {"details": "references 13-16; cited from earlier work"}, "[5]": {"test_system": "hippocampal neurons in culture", "details": "reference 17; cited from earlier work"}}, "note": "Ends that are not written are not given here. Peptide text beside a SMILES is read from it.", "data": [{"molecule": "NC(=O)CC[C@H](N)C(=O)N[C@@H](Cc1ccccc1)C(=O)N[C@@H](Cc1ccccc1)C(=O)NCC(=O)O", "note": "[Gln Phe Phe Gly] (H-QFFG-OH)", "values": [{"measurement": "amnestic effect on retention of FAAT", "setting": "CD-1 male mice [1]; post-training ICV", "result": "amnestic"}, {"measurement": "dose at which statistically significant memory enhancement found", "setting": "CD-1 male mice [2]; weakly trained animals", "result": "10^-14 moles/mouse"}, {"measurement": "memory-enhancing potency compared with other peptides", "setting": "CD-1 male mice [2]; weakly trained mice", "result": "by far the most potent"}, {"measurement": "Lowest Concentration For Significant Memory Enhancement", "setting": "CD-1 male mice [2]; weakly trained mice", "result": "6 × 10^-14 Moles/Mouse"}]}, {"molecule": "N[C@@H](Cc1ccccc1)C(=O)N[C@@H](Cc1ccccc1)C(=O)O", "note": "[Phe Phe] (H-Phe-Phe-OH)", "values": [{"measurement": "amnestic effect on retention of FAAT", "setting": "CD-1 male mice [1]; post-training ICV", "result": "amnestically ineffective"}, {"measurement": "mean trials to criterion ±SEM", "setting": "CD-1 male mice [1]; post-training ICV, 6.14 nmol per mouse, vehicle 6.80±0.21", "result": "7.0±0.42"}]}, {"molecule": "CC(C)[C@H](N)C(=O)N[C@@H](Cc1ccccc1)C(=O)N[C@@H](Cc1ccccc1)C(=O)O", "note": "[Val Phe Phe] (H-Val-Phe-Phe-OH)", "values": [{"measurement": "amnestic efficacy/potency compared with another peptide", "setting": "CD-1 male mice [1]; ICV", "result": "not significantly different from that of the β-A4 homologue [Gln^11 ]β-(1-28)"}, {"measurement": "dose at which amnesia first noted", "setting": "CD-1 male mice [1]; ICV, well-trained animals", "result": "3×10^-9 moles/mouse"}, {"measurement": "amnestic effect on retention of FAAT", "setting": "CD-1 male mice [1]; post-training ICV", "result": "amnestic"}, {"measurement": "dose at which statistically significant memory enhancement found", "setting": "CD-1 male mice [2]; weakly trained animals", "result": "1.9×10^-11 moles/mouse"}, {"measurement": "memory-enhancing effect", "setting": "CD-1 male mice [2]; weakly trained animals", "result": "memory enhancer"}, {"measurement": "Lowest Concentration For Significant Memory Enhancement", "setting": "CD-1 male mice [2]; weakly trained mice", "result": "1.9 × 10^-11 Moles/Mouse"}]}, {"molecule": "CC(C)[C@H](N)C(=O)N[C@@H](Cc1ccccc1)C(=O)N[C@H](C(=O)O)[C@@H](C)O", "note": "[Val Phe Thr] (H-Val-Phe-Thr-OH)", "values": [{"measurement": "amnestic effect on retention of FAAT", "setting": "CD-1 male mice [1]; post-training ICV", "result": "amnestic"}]}, {"molecule": "His Ser Asp Ala Val Phe Thr Asp Asn Tyr Thr Arg Leu Lys Gln Met Ala Val Lys Lys Tyr Leu Asn Ser Ile Leu Asn-NH2 (HSDAVFTDNYTRLKQMAVKKYLNSILN-NH2) [VIP]", "values": [{"measurement": "amnestic effect on retention of FAAT (earlier publications)", "setting": "CD-1 male mice [3]", "result": "amnestic"}]}, {"molecule": "KLVFFAE [Lys Leu Val Phe Phe Ala Glu]", "values": [{"measurement": "amnestic effect on retention of FAAT", "setting": "CD-1 male mice [1]; post-training ICV", "result": "not amnestic"}]}, {"molecule": "Pro Arg Pro Gly Pro Gln Gln Phe Phe Gly Leu Met-NH2 (PRPGPQQFFGLM-NH2) [Substance Pro]", "values": [{"measurement": "memory retention (literature)", "setting": "[4]", "result": "enhance memory retention"}, {"measurement": "effect on trophic and toxic effects of β-A4 on hippocampal neurons", "setting": "[5]", "result": "counteract trophic and toxic effects of B-A4 on hippocampal neurons in culture"}]}, {"molecule": "VFFAE [Val Phe Phe Ala Glu]", "values": [{"measurement": "amnestic efficacy/potency compared with another peptide", "setting": "CD-1 male mice [1]; ICV", "result": "lesser potency of Val Phe Phe Ala Glu than that of Val Phe Phe"}, {"measurement": "amnestic effect on retention of FAAT", "setting": "CD-1 male mice [1]; post-training ICV", "result": "amnestic"}]}, {"molecule": "VFFAEDVGSNK [β-(18-28)]", "values": [{"measurement": "amnestic effect on retention of FAAT (earlier publications)", "setting": "CD-1 male mice [3]", "result": "amnestic"}]}, {"molecule": "β-(1-18): β-A4 fragment as printed in b47; probably the β-(1-28) homologue of reference 1 (DAEFRHDSGYEVHHQKLV; Amyloid-beta protein 42; UniProt P05067 672-689, looked up, fragment)", "values": [{"measurement": "dose at which active (amnestic)", "setting": "CD-1 male mice [3]; ICV, reference 1", "result": 1.5, "unit": "nmol per mouse"}]}]}
